Legend:
[1] = Inhibitory activity against type A neuraminidase (N2); set-up: species or system unidentified influenza virus
[2] = Inhibitory activity against type A neuraminidase (N9); set-up: species or system unidentified influenza virus

Q: For `C=C(C)NC(C(CC)CC)[C@@H]1[C@H](O)[C@@H](C(=O)O)C[C@H]1N=C(N)N` (some centres not stated), which “Log IC50” value [1] is on record?
A: -10

Q: And the “Log IC50” value [2]?
A: -10

— ChEMBL document CHEMBL1134378 (J Med Chem, 2001)
